# In patent publication US8722718B2, “Inhibitors of C-FMS kinase” (Janssen Pharmaceutica NV, priority 2006, dated 2014):
# Legend:
# [1] = test system: mouse bone-marrow derived macrophages (BMDM); experiment: CSF-1-driven mouse bone-marrow derived macrophages proliferation assay (BrDU incorporation); assay type: cell-based; conditions: mCSF driven proliferation, read-out: mCSF driven proliferation BMDM (Mouse) IC-50
# Description: CSF-1-Driven Mouse Bone-Marrow Derived Macrophages Assay
# Macrophages are derived by culturing mouse bone marrow in alpha-MEM supplemented with 10% FCS and 50 ng/ml recombinant mouse CSF-1 in bacteriologic dishes. On the sixth day, macrophages are detached from dishes, washed, and resuspended to 0.05 million cells/ml in alpha-MEM containing 10% FCS. One hundred ul of cell suspension are distributed per well into 96 well culture plates. Wells are further supplemented with the addition of 50 ul media containing 15 ng/ml CSF-1, 3 uM Indomethacin, and 3× of a dilution series of test compounds. The cells are cultured for 30 hrs at 37 degrees and 5% CO2. During the final six hours, cultures are supplemented with an additional 30 ul of media containing a 1:500 dilution of bromodeoxyuridine (BrDU). At the end of the culture period, the plates are spun at 1000 RPM for 1 minute and 130 ul of media is removed with a pipet and replaced with 150 ul of fixative solution for 1 hour @ room temperature. The fixative is then dispelled from the plates and the plates allowed to air dry. Incorporation of BrDU into the fixed, dried cells is quantified using a specific ELISA.
# [2] = target: c-fms (Homo sapiens (Human), UniProt P07333); experiment: c-fms autophosphorylation fluorescence polarization competition immunoassay (1 nM c-fms; peptide Pi assay); assay type: biochemical; conditions: read-out: 1 nM c-fms, peptide Pi assay IC-50
# Description: Fluorescence Polarization Competition Immunoassay
# The assay buffer used was 100 mM 4-(2-hydroxyethyl)piperazine 1-ethanesulfonic acid (HEPES), pH 7.5, 1 mM 1,4-dithio-DL-threitol (DTT), 0.01% (v/v) Tween-20. Compounds were diluted in assay buffer containing 4% dimethylsulfoxide (DMSO) just prior to the assay. […] The kinase reaction was initiated by adding 2 μL of 5 mM ATP (Sigma) in assay buffer. […] Control reactions were ran in each plate: in positive and negative control wells, assay buffer (made 4% in DMSO) was substituted for the compound; in addition, positive control wells received 1.2 μL of 50 mM ethylenediaminetetraaceticacid (EDTA).
# The plates were incubated at room temperature for 45 min. At the end of the incubation, the reaction was quenched with 1.2 μL of 50 mM EDTA (EDTA was not added to the positive control wells at this point; see above). Following a 5-min incubation, each well received 10 μL of a 1:1:3 mixture of anti-phosphotyrosine antibody, 10×, PTK green tracer, 10× (vortexed), FP dilution buffer, respectively (all from PanVera, cat. #P2837). The plate was covered, incubated for 30 min at room temperature and the fluorescence polarization was read on the Analyst. The instrument settings were: 485 nm excitation filter; 530 nm emission filter; Z height: middle of well; G factor: 0.93. […] The reported IC50 values are averages of three independent measurements.
# c-fms, sequence (P07333 20-972): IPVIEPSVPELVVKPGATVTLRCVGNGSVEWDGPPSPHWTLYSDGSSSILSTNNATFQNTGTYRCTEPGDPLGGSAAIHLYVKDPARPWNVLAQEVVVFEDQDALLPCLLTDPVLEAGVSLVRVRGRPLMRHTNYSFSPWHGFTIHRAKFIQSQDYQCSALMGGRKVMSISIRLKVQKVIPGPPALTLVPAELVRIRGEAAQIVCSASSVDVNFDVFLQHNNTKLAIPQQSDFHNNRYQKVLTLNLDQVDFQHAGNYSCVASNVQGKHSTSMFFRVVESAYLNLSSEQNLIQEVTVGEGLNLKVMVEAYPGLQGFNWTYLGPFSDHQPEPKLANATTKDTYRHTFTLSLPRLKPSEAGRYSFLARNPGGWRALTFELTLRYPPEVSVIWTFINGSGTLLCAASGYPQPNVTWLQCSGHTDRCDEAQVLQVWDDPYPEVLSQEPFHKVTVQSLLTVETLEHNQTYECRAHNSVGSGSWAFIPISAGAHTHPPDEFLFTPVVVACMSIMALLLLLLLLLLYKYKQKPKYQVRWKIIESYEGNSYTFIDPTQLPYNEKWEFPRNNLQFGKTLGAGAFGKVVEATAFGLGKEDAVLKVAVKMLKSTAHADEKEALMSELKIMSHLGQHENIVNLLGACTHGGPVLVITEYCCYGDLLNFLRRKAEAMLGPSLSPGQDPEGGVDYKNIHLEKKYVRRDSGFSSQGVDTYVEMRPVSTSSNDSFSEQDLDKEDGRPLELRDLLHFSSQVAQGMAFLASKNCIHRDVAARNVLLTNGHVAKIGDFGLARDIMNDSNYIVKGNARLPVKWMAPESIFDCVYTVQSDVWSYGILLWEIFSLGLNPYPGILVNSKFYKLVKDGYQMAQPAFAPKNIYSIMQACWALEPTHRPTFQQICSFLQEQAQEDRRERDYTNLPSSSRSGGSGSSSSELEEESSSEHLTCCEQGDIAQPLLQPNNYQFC
IC50 [2] [nM],SMILES,IC50 [1] [nM]
3.4,"CC1(c2ccc(NC(=O)c3ncc(C#N)[nH]3)c(C3=CCCCC3)c2)OCCO1 [Example 1, 5-Cyano-1H-imidazole-2-carboxylic acid [2-cyclohex-1-enyl-4-(2-methyl-[1,3]dioxolan-2-yl)-phenyl]-amide]",48
3.9,"CC1(c2ccc(NC(=O)c3nc(C#N)c[nH]3)c(C3=CCCCC3)c2)OCCCO1 [Example 2, 4-Cyano-1H-imidazole-2-carboxylic acid [2-cyclohex-1-enyl-4-(2-methyl-[1,3]dioxan-2-yl)-phenyl]-amide]",44
